For two compounds, IC50 results are on record in patent US7452886B2, “Pyrrolo pyrimidines as agents for the inhibition of cystein proteases” (Novartis AG, priority 2001, dated 2008).

This experiment concerns the target T1, recombinant human cathepsin K (Homo sapiens, UniProt P43235).
T1 sequence (P43235 115-329): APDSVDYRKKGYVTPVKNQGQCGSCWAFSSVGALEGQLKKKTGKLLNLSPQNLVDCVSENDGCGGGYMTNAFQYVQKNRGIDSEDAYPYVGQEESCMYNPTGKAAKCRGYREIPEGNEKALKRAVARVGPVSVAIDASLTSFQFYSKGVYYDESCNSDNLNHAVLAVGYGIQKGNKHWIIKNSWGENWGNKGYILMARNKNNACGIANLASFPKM
As to the kind of experiment: In vitro inhibition of recombinant human cathepsin K (Z-Phe-Arg-AMCA fluorescence assay). It counts as biochemical. The note with it: recombinant human cathepsin K 0.16 nM, Z-Phe-Arg-AMCA substrate, pH 7.0, 30 min preincubation, 30 min incubation, ambient temperature. As for the experimental part: The In Vitro assay is Carried out as Follows:
The assay is performed in 96 well microtiter plates at ambient temperature using recombinant human cathepsin K. Inhibition of cathepsin K is assayed at a constant enzyme (0.16 nM) and substrate concentration ([…] Z-Phe-Arg-AMCA—Peptide Institute Inc. Osaka, Japan) in 100 mM sodium phosphate buffer, pH 7.0, containing 2 mM dithiothreitol 20 mM Tween 80 and 1 mM EDTA. Cathepsin K is preincubated with the inhibitors for 30 min, and the reaction is initiated by the addition of substrate. After 30 min incubation the reaction is stopped by the addition of E-64 (2 mM), and fluorescence intensity is read on a multi-well plate reader at excitation and emission wavelengths of 360 and 460 nm, respectively. […] Thus for example, the compounds of Examples 6-15 and 7-45 have IC50s for inhibition of human cathepsin K of 1 nM and 0.6 nM respectively.

As to `Cc1ccc(N2CCN(Cc3cc4cnc(C#N)nc4n3CC(C)(C)C)CC2)cc1` [Example 6-15], the IC50 came to 1 nM.

As to `CC(C)(C)Cn1c(CN2CCC3(CC2)NC(=O)NC3=O)cc2cnc(C#N)nc21` [Example 7-45], the IC50 came out at 0.6 nM.
